From patent publication US4973603A, “Platelet activating factor antagonist and methods of use therefor” (priority 1989, dated 1990)
Like-named read-outs stand apart in the source and are kept apart here.

Assays:
gastric mucosa [1] = conditions: 1 hour; for Mean Score: scale 0-3 (0 = normal mucosa)
Method: Robert and Szabo, In: Selye's Guide to Stress Research, (Vol. 2, A. Selye, Ed.) New York; Van Nostrand Reinhold Co., pp. 22-46 (1983); and Robert et al., Gastroenterology, 77:433-443 (1979). Experimental groups of 5-11 rats (Charles River CD) were fasted for 24 hours before the administration of either aspirin, Formula I or indomethacin by a rubber stomach tube (Rusch No. 8). The animals were killed 1 hour later by carbon dioxide asphyxiation. At that time, 4 ml of 10% aqueous buffered formaldehyde (formalin) was injected directly into the stomach of each animal. […] After 5 minutes of in situ fixation, the stomach and proximal duodenum were removed, opened along the greater curvature, pinned on a cork with mucosa upward, and immersed in 10% formaldehyde until further processing. Szabo, S. et al., J. Pharmacol. Meth., 13:59-66 (1985). The gastric lesions were then evaluated by direct visual inspection.
For comparative purposes, a semiquantitative scale of 0-3 was used to assess the extent of gastric mucosal lesions. Szabo et al., Science, 214:200-202 (1981); and Szabo et al., Gastroenterology, 85:1384-1390 (1983). According to this scale, a score of 0 indicates a normal mucosa; 1 represents the appearance of between 1 and 4 small petechiae; 2 indicates the presence of 5 or more petechiae or hemmorhagic streaks up to 4 mm in length; 3 represents the appearance of erosions longer than 5 mm or confluent hemmorrhages.

arachidonic acid = assay: The Mouse Ear Edema Test (arachidonic acid-induced skin edema); type: in vivo, mouse (Charles River CD-1, female); conditions: 1 hour before arachidonic acid (0.5 mg)
Excerpt: The direct application of arachidonic acid to skin, such as the mouse ear, produces an edematous response which is believed to be mediated by eicosanoids resulting from the actions of both cyclooxygenase and lipoxygenase systems. J. M. Young, D. A. Spires, C. J. Bedford, B. Wagner, S. J. Ballaron and L. M. DeYoung, J. Invest. Dermatol. 82:367-371 (1984); E. E. Opas, R. J. Bonney, and J. L. Hanes J. Invest. Dermatol. 84:253-256 (1985). PAF has been reported to cause the release of arachidonic acid, and as a result, gives rise to increased levels of eicosanoids in the exposed tissues. F. H. Chilton, J. T. Flaherty, C. E. Walsh, M. J. Thomas, R. L. Wykle, L. R. DeChatelet and B. M. Waite, J. Biol. Chem., 257:5402-5407 (1982). Thus, the mouse ear edema test can be used to discover substances which antagonize the effects of PAF.
The test drugs were dissolved in 10 μl ethanol and applied to the inner surface of the left ears of Charles River CD-1 female mice. Control values were obtained by applying 10 μl of ethanol to the right ear so that each mouse served as its own control. One hour later, arachidonic acid (0.5 mg/ear in 10 μl ethanol) was applied to both ears and allowed to act on the skin for one hour. The mice were then killed by cervical dislocation and the ears removed so that all tissue samples were of equivalent areas. The extent of edema in each sample was measured by weighing on an analytical balance.

[2] = test system: platelet activating factor (PAF); assay: PAF Induced Mortality; type: in vivo, mouse (Charles River CD-1, female); conditions: for protective effect (in words): compared with Formula I
Method: The induction of mortality by the injection of low doses of PAF into mice has been described as a method for assessing the effectiveness of agents to antagonize the anaphylactic properties of PAF by J. M. Young, P. J. Maloney, S. W. Jubb and J. S. Clarke, in Prostaglandins, 30:545-551 (1985). Charles River CD-1 female mice (25-30 g) were given intraperitoneal injections of PAF (10 μg) dissolved in 100 μl of 5% ethanol-saline. […] Test drugs were orally administered in 50 μl of peanut oil one hour prior to PAF injection. Control mice were dosed with vehicle only. Mortality was assessed by counting survivors at one hour, two hours, and twenty four hours after the PAF injection.

gastric mucosa [3] = conditions: common adverse effect of consumption; cited from earlier work
[4] = test system: platelet activating factor (PAF); conditions: reported by Calhoun et al., Agents & Actions, 21:306-309 (1987); cited from earlier work
[5] = test system: platelet activating factor (PAF); assay: PAF Induced Paw Edema in the Mouse; type: in vivo, mouse (Charles River CD-1, female); conditions: 1 hour before PAF (1 ug/paw), 15 min after PAF
Method: The experimental procedure was adapted from Calhoun et al., Agents & Actions, 21:306-309 (1987). Charles River CD-1 female mice (20-25 G) were given a dose of Formula I, or phenidone, using peanut oil as a carrier. Control mice were given doses of the carrier alone. The drugs were administered orally in a 50 μl volume of peanut oil. One hour later, 1.0 μg of PAF dissolved in 50 μl of 5% ethanol-saline was injected subcutaneously into the plantar surface of the right hind paw. The volume of this injected foot to the level of the lateral malleous was measured by water displacement immediately before drug administration and again 15 minutes after PAF injection.
The effectiveness of each compound was analyzed in the following manner. The individual paw volumes were compared by a paired t test analysis in which predrug paw volumes were compared to paw volumes 15 minutes after PAF injection to determine the level of statistical significance. The percent inhibition of edema volume was obtained from the ratio of the mean predrug volume to the mean volume after PAF.

[6] = 20 mg/kg oral, 1 hr after PAF (10 μg i.p.)
[7] = 20 mg/kg oral, 2 hrs after PAF (10 μg i.p.)
[8] = 20 mg/kg oral, 24 hrs after PAF (10 μg i.p.)
[9] = 40 mg/kg oral, 1 hr after PAF (10 μg i.p.)
[10] = 40 mg/kg oral, 2 hrs after PAF (10 μg i.p.)
[11] = 40 mg/kg oral, 24 hrs after PAF (10 μg i.p.)

**Q.** With CC(=O)Oc1ccccc1C(=O)O [Aspirin, aspirin] as the compound, how does the “Mean Score” value (gastric mucosa [1]; 100 mg/kg by stomach tube) read?
**A.** 1.9

**Q.** What does the source list for COc1ccc2c(c1)c(CC(=O)O)c(C)n2C(=O)c1ccc(Cl)cc1 [Indomethacin, indomethacin]?
**A.** Incidence (rats with lesions/total tested) (gastric mucosa [1]; 10 mg/kg by stomach tube): 2/5; Mean Score (gastric mucosa [1]; 10 mg/kg by stomach tube): 0.6; Incidence (rats with lesions/total tested) (gastric mucosa [1]; 20 mg/kg by stomach tube): 6/11; Mean Score (gastric mucosa [1]; 20 mg/kg by stomach tube): 0.77; % Inhibition of Edema (arachidonic acid; 0.05 mg/ear topical): 24.1%; % Inhibition of Edema (arachidonic acid; 0.10 mg/ear topical): 21.8%

**Q.** With COc1ccc2cc([C@H](C)C(=O)O)ccc2c1 [Naproxen, naproxen, reference compound] as the compound, how does the “Survivors (%)” value [2, 6] read?
**A.** 40%

**Q.** What about the Survivors/N [2, 6] of the same compound?
**A.** 4/10

**Q.** And the “Survivors (%)” value [2, 7]?
**A.** 40%

**Q.** What about the Survivors/N [2, 7] of the same compound?
**A.** 4/10

**Q.** And the “Survivors (%)” value [2, 8]?
**A.** 20%

**Q.** And the Survivors/N [2, 8]?
**A.** 2/10

**Q.** And the “Survivors (%)” value [2, 9]?
**A.** 100%

**Q.** What about the Survivors/N [2, 9] of the same compound?
**A.** 5/5

**Q.** What about the “Survivors (%)” value [2, 10] of the same compound?
**A.** 60%

**Q.** And the Survivors/N [2, 10]?
**A.** 3/5

**Q.** What about the “Survivors (%)” value [2, 11] of the same compound?
**A.** 60%

**Q.** And the Survivors/N [2, 11]?
**A.** 3/5

**Q.** What about the “protective effect (in words)” value [2] of the same compound?
**A.** less protective than Formula I, particularly at longer time intervals

**Q.** And the “gastrointestinal damage (in words)” value (gastric mucosa [3])?
**A.** gastrointestinal damage, generally manifested as bleeding and/or frank ulceration

**Q.** For O=C1CCN(c2ccccc2)N1 [Phenidone, phenidone, reference compound], which “effectiveness against PAF edema (in words)” value [4] is on record?
**A.** effective against PAF edema

**Q.** What about the “% Inhibition of Edema” value ([5]; 40 mg/kg oral) of the same compound?
**A.** 20.4%

**Q.** What about the “% Inhibition of Edema” value ([5]; 80 mg/kg oral) of the same compound?
**A.** 35.7%

**Q.** What about the “Survivors (%)” value [2, 9] of the same compound?
**A.** 20%

**Q.** What about the Survivors/N [2, 9] of the same compound?
**A.** 1/5

**Q.** What about the “Survivors (%)” value [2, 10] of the same compound?
**A.** 20%

**Q.** What about the Survivors/N [2, 10] of the same compound?
**A.** 1/5

**Q.** And the “Survivors (%)” value [2, 11]?
**A.** 20%

**Q.** What about the Survivors/N [2, 11] of the same compound?
**A.** 1/5

**Q.** And the “protective effect (in words)” value [2]?
**A.** less protective than Formula I, particularly at longer time intervals

**Q.** And the “% Inhibition of Edema” value (arachidonic acid; 0.063 mg/ear topical)?
**A.** 15.4%

**Q.** And the “% Inhibition of Edema” value (arachidonic acid; 0.13 mg/ear topical)?
**A.** 26.6%

**Q.** What about the “% Inhibition of Edema” value (arachidonic acid; 0.25 mg/ear topical) of the same compound?
**A.** 24.4%

**Q.** What about the “gastrointestinal damage (in words)” value (gastric mucosa [3]) of the same compound?
**A.** gastrointestinal damage, generally manifested as bleeding and/or frank ulceration
